This passage reports DC50 results from US20260028354A1, “TETRAHYDRONAPHTHALENE DERIVATIVES AS ESTROGEN RECEPTOR DEGRADERS” (REGENT OF THE UNIVERSITY OF MICHIGAN, priority 2022, published 2026).

Where only a bound is given, the exact number is not on record here.

A short description of this test: Western blot analysis for "B" compounds. The following applies: read-out: Traditional Western Degradation Potency (DC50). The test is classed as cell-based. The procedure, abridged: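 Target protein levels given as relative mean band intensity over GAPDH from scanned immunoblots. Lysates of treated cells in RIPA buffer, equalized by BCA, separated on 10% gels and transferred to PVDF.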
On the technique in general: A western blot detects proteins with antibodies after separation by electrophoresis.

The term DC50 denotes the concentration at which degradation of the target reaches its halfway point. As for `O=C1CCC(N2C(=O)c3cc4c(cc3C2=O)CN(C2CCN(CC3CN(c5ccc([C@@H]6c7ccc(O)cc7CC[C@@H]6c6ccccc6)cc5)C3)CC2)C4)C(=O)N1` (stereo partly drawn) [Compound B61, 2-(2,6-dioxopiperidin-3-yl)-6-(1-((1-(4-((1R,2S)-6-hydroxy-2-phenyl-1,2,3,4-tetrahydronaphthalen-1-yl)phenyl)azetidin-3-yl)methyl)piperidin-4-yl)-6,7-dihydropyrrolo[3,4-f]isoindole-1,3(2H,5H)-dione], the DC50 is less than 10 nM.
On to `O=C1CCC(N2C(=O)c3cc4c(cc3C2=O)CN(CC2CCN(CC3CN(c5ccc([C@@H]6c7ccc(O)cc7CC[C@@H]6c6ccccc6)cc5)C3)CC2)C4)C(=O)N1` (stereo partly drawn) [Compound B62, 2-(2,6-dioxopiperidin-3-yl)-6-((1-((1-(4-((1R,2S)-6-hydroxy-2-phenyl-1,2,3,4-tetrahydronaphthalen-1-yl)phenyl)azetidin-3-yl)methyl)piperidin-4-yl)methyl)-6,7-dihydropyrrolo[3,4-f]isoindole-1,3(2H,5H)-dione], for which the DC50 is 10 to 100 nM.
As for `O=C1CCC(N2C(=O)c3cc4c(cc3C2=O)CN(CC2(F)CCN(CC3CN(c5ccc([C@@H]6c7ccc(O)cc7CC[C@@H]6c6ccccc6)cc5)C3)CC2)C4)C(=O)N1` (stereo partly drawn) [Compound B63, 2-(2,6-dioxopiperidin-3-yl)-6-((4-fluoro-1-((1-(4-((1R,2S)-6-hydroxy-2-phenyl-1,2,3,4-tetrahydronaphthalen-1-yl)phenyl)azetidin-3-yl)methyl)piperidin-4-yl)methyl)-6,7-dihydropyrrolo[3,4-f]isoindole-1,3(2H,5H)-dione], the DC50 is more than 100 nM.
In the case of `O=C1CCC(N2C(=O)c3cc4c(cc3C2=O)CN(C2CN(CC3CCN(c5ccc([C@@H]6c7ccc(O)cc7CC[C@@H]6c6ccccc6)cc5)CC3)C2)C4)C(=O)N1` (stereo partly drawn) [Compound B65, 2-(2,6-dioxopiperidin-3-yl)-6-(1-((1-(4-((1R,2S)-6-hydroxy-2-phenyl-1,2,3,4-tetrahydronaphthalen-1-yl)phenyl)piperidin-4-yl)methyl)azetidin-3-yl)-6,7-dihydropyrrolo[3,4-f]isoindole-1,3(2H,5H)-dione] it was more than 100 nM; in that of `O=C1CCC(N2C(=O)c3cc4c(cc3C2=O)CN(C2CCN(CC3CCN(c5ccc([C@@H]6c7ccc(O)cc7CC[C@@H]6c6ccc(F)cc6)cc5)CC3)CC2)C4)C(=O)N1` (stereo partly drawn) [Compound B66, 2-(2,6-dioxopiperidin-3-yl)-6-(1-((1-(4-((1R,2S)-2-(4-fluorophenyl)-6-hydroxy-1,2,3,4-tetrahydronaphthalen-1-yl)phenyl)piperidin-4-yl)methyl)piperidin-4-yl)-6,7-dihydropyrrolo[3,4-f]isoindole-1,3(2H,5H)-dione], 10 to 100 nM.
On to `O=C1CCC(N2C(=O)c3cc4c(cc3C2=O)CN(CC2CN(CC3CCN(c5ccc([C@@H]6c7ccc(O)cc7CC[C@@H]6c6ccc(F)cc6)cc5)CC3)C2)C4)C(=O)N1` (stereo partly drawn) [Compound B67, 2-(2,6-dioxopiperidin-3-yl)-6-((1-((1-(4-((1R,2S)-2-(4-fluorophenyl)-6-hydroxy-1,2,3,4-tetrahydronaphthalen-1-yl)phenyl)piperidin-4-yl)methyl)azetidin-3-yl)methyl)-6,7-dihydropyrrolo[3,4-f]isoindole-1,3(2H,5H)-dione], for which the DC50 is more than 100 nM.
In the case of `O=C1CCC(N2Cc3cc4c(cc3C2=O)CN(C2CCN(CC3CCN(c5ccc([C@@H]6c7ccc(O)cc7CC[C@@H]6c6ccc(F)cc6)cc5)CC3)CC2)C4)C(=O)N1` (stereo partly drawn) [Compound B68, 3-(6-(1-((1-(4-((1R,2S)-2-(4-fluorophenyl)-6-hydroxy-1,2,3,4-tetrahydronaphthalen-1-yl)phenyl)piperidin-4-yl)methyl)piperidin-4-yl)-1-oxo-3,5,6,7-tetrahydropyrrolo[3,4-f]isoindol-2(1H)-yl)piperidine-2,6-dione] it was less than 10 nM; in that of `O=C1CCC(N2C(=O)c3cc4c(cc3C2=O)CN(C2CCN(CC3CN(c5ccc([C@@H]6c7ccc(O)cc7CC[C@@H]6c6ccc(F)cc6)cc5)C3)CC2)C4)C(=O)N1` (stereo partly drawn) [Compound B69, 2-(2,6-dioxopiperidin-3-yl)-6-(1-((1-(4-((1R,2S)-2-(4-fluorophenyl)-6-hydroxy-1,2,3,4-tetrahydronaphthalen-1-yl)phenyl)azetidin-3-yl)methyl)piperidin-4-yl)-6,7-dihydropyrrolo[3,4-f]isoindole-1,3(2H,5H)-dione], more than 100 nM.
Regarding `O=C1CCC(N2C(=O)c3cc4c(cc3C2=O)CN(CC2CCN(CC3CN(c5ccc([C@@H]6c7ccc(O)cc7CC[C@@H]6c6ccc(F)cc6)cc5)C3)CC2)C4)C(=O)N1` (stereo partly drawn) [Compound B70, 2-(2,6-dioxopiperidin-3-yl)-6-((1-((1-(4-((1R,2S)-2-(4-fluorophenyl)-6-hydroxy-1,2,3,4-tetrahydronaphthalen-1-yl)phenyl)azetidin-3-yl)methyl)piperidin-4-yl)methyl)-6,7-dihydropyrrolo[3,4-f]isoindole-1,3(2H,5H)-dione], the 50% degradation concentration (DC50) is more than 100 nM.
Take `O=C1CCC(N2C(=O)c3cc4c(cc3C2=O)CN(CC2CN(CC3CN(c5ccc([C@@H]6c7ccc(O)cc7CC[C@@H]6c6ccc(F)cc6)cc5)C3)C2)C4)C(=O)N1` (stereo partly drawn) [Compound B71, 2-(2,6-dioxopiperidin-3-yl)-6-((1-((1-(4-((1R,2S)-2-(4-fluorophenyl)-6-hydroxy-1,2,3,4-tetrahydronaphthalen-1-yl)phenyl)azetidin-3-yl)methyl)azetidin-3-yl)methyl)-6,7-dihydropyrrolo[3,4-f]isoindole-1,3(2H,5H)-dione]: the DC50 is more than 100 nM.
With `O=C1CCC(N2Cc3cc4c(cc3C2=O)CN(C2CCN(CC3CN(c5ccc([C@@H]6c7ccc(O)cc7CC[C@@H]6c6ccc(F)cc6)cc5)C3)CC2)C4)C(=O)N1` (stereo partly drawn) [Compound B72, 3-(6-(1-((1-(4-((1R,2S)-2-(4-fluorophenyl)-6-hydroxy-1,2,3,4-tetrahydronaphthalen-1-yl)phenyl)azetidin-3-yl)methyl)piperidin-4-yl)-1-oxo-3,5,6,7-tetrahydropyrrolo[3,4-f]isoindol-2(1H)-yl)pipcridinc-2,6-dionc], the DC50 lay within 10 to 100 nM.
As for `O=C1CCC(N2C(=O)c3cc4c(cc3C2=O)CN(C2CCN(CC3(F)CN(c5ccc([C@@H]6c7ccc(O)cc7CC[C@@H]6c6ccccc6)cc5)C3)CC2)C4)C(=O)N1` (stereo partly drawn) [Compound B73, 2-(2,6-dioxopiperidin-3-yl)-6-(1-((3-fluoro-1-(4-((1R,2S)-6-hydroxy-2-phenyl-1,2,3,4-tetrahydronaphthalen-1-yl)phenyl)azetidin-3-yl)methyl)piperidin-4-yl)-6,7-dihydropyrrolo[3,4-f]isoindole-1,3(2H,5H)-dione], the DC50 was more than 100 nM.
Regarding `O=C1CCC(N2C(=O)c3cc4c(cc3C2=O)CN(CC2CCN(CC3(F)CN(c5ccc([C@@H]6c7ccc(O)cc7CC[C@@H]6c6ccccc6)cc5)C3)CC2)C4)C(=O)N1` (stereo partly drawn) [Compound B74, 2-(2,6-dioxopiperidin-3-yl)-6-((1-((3-fluoro-1-(4-((1R,2S)-6-hydroxy-2-phenyl-1,2,3,4-tetrahydronaphthalen-1-yl)phenyl)azetidin-3-yl)methyl)piperidin-4-yl)methyl)-6,7-dihydropyrrolo[3,4-f]isoindole-1,3(2H,5H)-dione], the DC50 was more than 100 nM.
`CN(C1CCC(CN2Cc3cc4c(cc3C2)C(=O)N(C2CCC(=O)NC2=O)C4=O)CC1)C1CCN(c2ccc([C@@H]3c4ccc(O)cc4CC[C@@H]3c3ccccc3)cc2)CC1` (stereo partly drawn) [Compound B75, 2-(2,6-dioxopiperidin-3-yl)-6-((4-((1-(4-((1R,2S)-6-hydroxy-2-phenyl-1,2,3,4-tetrahydronaphthalen-1-yl)phenyl)piperidin-4-yl)(methyl)amino)cyclohexyl)methyl)-6,7-dihydropyrrolo[3,4-f]isoindole-1,3(2H,5H)-dione]: the DC50 was more than 100 nM.
On to `O=C1CCC(N2C(=O)c3cc4c(cc3C2=O)CN(C2CCC(CN3CCN(c5ccc([C@@H]6c7ccc(O)cc7CC[C@@H]6c6ccccc6)cc5)CC3)CC2)C4)C(=O)N1` (stereo partly drawn) [Compound B76, 2-(2,6-dioxopiperidin-3-yl)-6-(4-((4-(4-((1R,2S)-6-hydroxy-2-phenyl-1,2,3,4-tetrahydronaphthalen-1-yl)phenyl)piperazin-1-yl)methyl)cyclohexyl)-6,7-dihydropyrrolo[3,4-f]isoindole-1,3(2H,5H)-dione], for which the DC50 lay in the range of 10 to 100 nM.
In the case of `O=C1CCC(N2C(=O)c3cc4c(cc3C2=O)CN(C2CCC(C(=O)N3CCN(c5ccc([C@@H]6c7ccc(O)cc7CC[C@@H]6c6ccccc6)cc5)CC3)CC2)C4)C(=O)N1` (stereo partly drawn) [Compound B77, 2-(2,6-dioxopiperidin-3-yl)-6-(4-(4-(4-((1R,2S)-6-hydroxy-2-phenyl-1,2,3,4-tetrahydronaphthalen-1-yl)phenyl)piperazine-1-carbonyl)cyclohexyl)-6,7-dihydropyrrolo[3,4-f]isoindole-1,3(2H,5H)-dione] it was more than 100 nM; in that of `O=C1CCC(N2Cc3cc4c(cc3C2=O)CN(C2CCN(CC3CN(c5ccc([C@@H]6c7ccc(O)cc7CC[C@@H]6c6ccccc6)cc5)C3)CC2)C4)C(=O)N1` (stereo partly drawn) [Compound B78, 3-(6-(1-((1-(4-((1R,2S)-6-hydroxy-2-phenyl-1,2,3,4-tetrahydronaphthalen-1-yl)phenyl)azetidin-3-yl)methyl)piperidin-4-yl)-1-oxo-3,5,6,7-tetrahydropyrrolo[3,4-f]isoindol-2(1H)-yl)piperidine-2,6-dione], more than 100 nM; in that of `O=C1CCC(N2C(=O)c3cc4c(cc3C2=O)CN(C(=O)C2CCN(CC3CN(c5ccc([C@@H]6c7ccc(O)cc7CC[C@@H]6c6ccccc6)cc5)C3)CC2)C4)C(=O)N1` (stereo partly drawn) [Compound B79, 2-(2,6-dioxopiperidin-3-yl)-6-(1-((1-(4-((1R,2S)-6-hydroxy-2-phenyl-1,2,3,4-tetrahydronaphthalen-1-yl)phenyl)azetidin-3-yl)methyl)piperidine-4-carbonyl)-6,7-dihydropyrrolo[3,4-f]isoindole-1,3(2H,5H)-dione], more than 100 nM.
